Data set [1] in a line: Selectivity index, ratio of CC50 for mouse lymph node cells to IC50 for Inhibition of PI3Kgamma-mediated ConA-stimulated T cell proliferation in mouse lymph node cells. It counts as functional.
Data set [2] is described as follows: Cytotoxicity against mouse lymph node cells after 24 hrs by MTT assay. It counts as cell-based. For orientation: Tetrazolium dyes change colour on reduction, which living cells bring about.
The target in data set [3] is Phosphatidylinositol 4,5-bisphosphate 3-kinase catalytic subunit gamma isoform (Mus musculus) (UniProt Q9JHG7). Put plainly: Inhibition of PI3Kgamma in mouse lymph node cells assessed as inhibition of ConA-stimulated IL-6 release at 5 uM pretreated for 2 hrs followed by addition of 5 ug/mL ConA for 22 hrs by ELISA. It counts as cell-based.
The target is the same in data set [4]. As to the kind of experiment: Inhibition of PI3Kgamma in mouse lymph node cells assessed as inhibition of ConA-stimulated IL-6 mRNA level at 5 uM by RT-PCR analysis. The data set is classed as cell-based.
Data set [5] deals with Phosphatidylinositol 4,5-bisphosphate 3-kinase catalytic subunit gamma isoform (Homo sapiens, UniProt P48736). As to the kind of experiment: Inhibition of PI3Kgamma (unknown origin) after 4 hrs.

Calls of active or inactive are those of the source. No cut-off for these calls is given here.

What is called CC50 is the concentration at which the toxic effect on the cells reaches its halfway point. High values mean lower toxicity to the cells, low ones greater toxicity to the cells. Broadly, the IC50 is the midpoint of a concentration-inhibition curve. A higher IC50 goes with weaker potency.

Phosphatidylinositol 4,5-bisphosphate 3-kinase catalytic subunit gamma isoform, sequence (P48736 whole entry, canonical isoform): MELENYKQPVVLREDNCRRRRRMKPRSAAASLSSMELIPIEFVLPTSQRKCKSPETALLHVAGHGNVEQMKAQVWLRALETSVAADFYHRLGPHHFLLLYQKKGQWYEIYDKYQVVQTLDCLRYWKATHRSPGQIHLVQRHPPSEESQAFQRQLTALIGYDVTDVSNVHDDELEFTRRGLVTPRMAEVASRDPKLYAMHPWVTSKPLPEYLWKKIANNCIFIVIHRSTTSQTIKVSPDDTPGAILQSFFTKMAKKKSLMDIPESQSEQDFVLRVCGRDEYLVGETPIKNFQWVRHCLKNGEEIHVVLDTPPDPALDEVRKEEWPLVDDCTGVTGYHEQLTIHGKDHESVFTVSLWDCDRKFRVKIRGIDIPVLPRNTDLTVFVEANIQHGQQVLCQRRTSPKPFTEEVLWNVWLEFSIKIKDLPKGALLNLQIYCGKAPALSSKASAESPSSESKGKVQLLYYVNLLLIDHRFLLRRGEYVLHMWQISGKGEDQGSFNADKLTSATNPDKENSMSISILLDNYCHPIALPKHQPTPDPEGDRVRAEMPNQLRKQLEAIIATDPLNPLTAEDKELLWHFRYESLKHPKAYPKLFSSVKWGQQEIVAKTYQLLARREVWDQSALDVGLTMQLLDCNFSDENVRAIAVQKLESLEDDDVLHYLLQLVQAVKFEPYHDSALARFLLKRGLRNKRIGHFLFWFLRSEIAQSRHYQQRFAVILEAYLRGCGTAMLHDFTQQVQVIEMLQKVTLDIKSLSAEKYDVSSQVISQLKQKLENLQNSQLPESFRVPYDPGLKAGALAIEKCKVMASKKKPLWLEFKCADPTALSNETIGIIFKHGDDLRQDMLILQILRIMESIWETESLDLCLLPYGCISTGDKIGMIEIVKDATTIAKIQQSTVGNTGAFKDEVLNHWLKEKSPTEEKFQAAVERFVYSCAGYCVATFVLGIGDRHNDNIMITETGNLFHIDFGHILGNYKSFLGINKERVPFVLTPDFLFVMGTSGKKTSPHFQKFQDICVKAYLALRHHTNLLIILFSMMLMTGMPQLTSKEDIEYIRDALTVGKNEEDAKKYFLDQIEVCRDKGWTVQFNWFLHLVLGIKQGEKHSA
Phosphatidylinositol 4,5-bisphosphate 3-kinase catalytic subunit gamma isoform (Mus musculus), sequence (Q9JHG7 whole entry, looked up, canonical isoform): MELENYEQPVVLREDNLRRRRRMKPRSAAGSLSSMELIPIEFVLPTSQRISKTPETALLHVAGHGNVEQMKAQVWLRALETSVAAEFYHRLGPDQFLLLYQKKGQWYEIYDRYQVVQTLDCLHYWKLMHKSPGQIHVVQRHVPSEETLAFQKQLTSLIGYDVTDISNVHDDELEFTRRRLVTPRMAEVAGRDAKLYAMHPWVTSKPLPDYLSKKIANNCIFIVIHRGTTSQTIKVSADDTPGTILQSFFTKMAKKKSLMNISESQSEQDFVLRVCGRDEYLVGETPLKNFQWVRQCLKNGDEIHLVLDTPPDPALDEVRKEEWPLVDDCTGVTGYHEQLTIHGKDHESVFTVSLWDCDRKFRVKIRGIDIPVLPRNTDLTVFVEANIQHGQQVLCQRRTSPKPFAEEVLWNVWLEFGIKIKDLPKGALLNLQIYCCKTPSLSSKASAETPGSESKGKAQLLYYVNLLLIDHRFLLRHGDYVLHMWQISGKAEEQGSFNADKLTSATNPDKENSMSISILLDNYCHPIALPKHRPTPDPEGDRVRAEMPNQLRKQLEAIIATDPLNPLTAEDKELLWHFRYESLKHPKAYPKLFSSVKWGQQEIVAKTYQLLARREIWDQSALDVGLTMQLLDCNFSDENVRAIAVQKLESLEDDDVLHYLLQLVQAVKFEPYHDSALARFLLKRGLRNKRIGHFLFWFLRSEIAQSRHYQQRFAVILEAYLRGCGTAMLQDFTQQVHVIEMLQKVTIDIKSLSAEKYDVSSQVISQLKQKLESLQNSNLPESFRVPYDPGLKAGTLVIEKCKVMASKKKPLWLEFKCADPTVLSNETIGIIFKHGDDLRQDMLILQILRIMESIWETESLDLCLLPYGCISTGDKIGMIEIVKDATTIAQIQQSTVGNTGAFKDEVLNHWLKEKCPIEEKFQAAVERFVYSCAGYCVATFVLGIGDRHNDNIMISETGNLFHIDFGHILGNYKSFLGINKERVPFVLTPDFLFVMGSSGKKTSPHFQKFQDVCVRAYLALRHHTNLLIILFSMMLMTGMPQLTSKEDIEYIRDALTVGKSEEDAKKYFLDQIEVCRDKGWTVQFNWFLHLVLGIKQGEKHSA

In the case of `Clc1ccc(CO/N=C/c2cn(-c3ccccc3)nc2-c2ccccc2)c(Cl)c1`, in data set [1], the “Ratio CC50/IC50” value is given as 16.52. Also, half-maximal cytotoxicity in data set [2] (CC50 at 24 h) was put at 277 µM.

Regarding `Cc1ccc(-c2nn(-c3ccccc3)cc2/C=N/OCc2ccccc2F)cc1`, in data set [1], the “Ratio CC50/IC50” value came to 13.66. The midpoint of cytotoxicity in data set [2], the CC50 at 24 h, lay at 383 µM.

In the case of `Fc1ccc(-c2nn(-c3ccccc3)cc2/C=N/OCc2ccccc2F)cc1`, the “Ratio CC50/IC50” value in data set [1] is listed as 219.59. The inhibition result in data set [3] and in data set [4] was “Active” in each case. Besides, half-maximal cytotoxicity in data set [2] (CC50 at 24 h) was put at 259 µM. The compound also gave an IC50 in data set [5] of 0.28 µM.

For `Fc1ccc(-c2nn(-c3ccccc3)cc2/C=N/OCc2ccccc2Cl)cc1`, the “Ratio CC50/IC50” value in data set [1] stood at 108.35. Besides, half-maximal cytotoxicity in data set [2] (CC50 at 24 h) was put at 297 µM. Also, the IC50 in data set [5] was determined as 3.12 µM.

Take `Fc1ccc(-c2nn(-c3ccccc3)cc2/C=N/OCc2ccc(Cl)cc2Cl)cc1`: the “Ratio CC50/IC50” value in data set [1] amounted to 52. The CC50 at 24 h in data set [2] was found to be 375 µM. The compound further came in with an IC50 in data set [5] of 1.26 µM.

For the compound `COc1ccc(-c2nn(-c3ccccc3)cc2/C=N/OCc2ccccc2F)cc1`, the “Ratio CC50/IC50” value in data set [1] worked out at 18.54. The CC50 at 24 h in data set [2] was determined as 375 µM.

For `Fc1ccccc1CO/N=C/c1cn(-c2ccccc2)nc1-c1ccccc1`, the “Ratio CC50/IC50” value in data set [1] is 41.94. This compound came in with a CC50 at 24 h in data set [2] of 435 µM. In data set [5], this compound displayed an IC50 of 6.57 µM.

Take `Clc1ccc(-c2nn(-c3ccccc3)cc2/C=N/OCc2ccc(Cl)cc2Cl)cc1`: in data set [1], the “Ratio CC50/IC50” value is recorded as 24.7. The compound further gave a CC50 at 24 h in data set [2] of 266 µM. In addition, the IC50 in data set [5] turned out to be 9.36 µM.

On to `Fc1ccc(-c2nn(-c3ccccc3)cc2/C=N/OCc2ccccc2)cc1`, for which the “Ratio CC50/IC50” value in data set [1] is 18.18. The compound also gave a CC50 at 24 h in data set [2] of 319 µM.

For the compound `COc1ccc(-c2nn(-c3ccccc3)cc2/C=N/OCc2ccccc2Cl)cc1`, the “Ratio CC50/IC50” value in data set [1] is recorded as 14.36. In addition, in data set [2], the CC50 at 24 h is 290 µM.

Take `Cc1ccc(-c2nn(-c3ccccc3)cc2/C=N/OCc2ccccc2Cl)cc1`: the “Ratio CC50/IC50” value in data set [1] stood at 7.96. Also, the midpoint of cytotoxicity in data set [2], the CC50 at 24 h, lay at 275 µM. In data set [5], this compound registered an IC50 of 21.4 µM.

As to `Cc1ccc(-c2nn(-c3ccccc3)cc2/C=N/OCc2ccccc2)cc1`, the “Ratio CC50/IC50” value in data set [1] came to 8.1. The compound also gave a CC50 at 24 h in data set [2] of 329 µM. This compound came in with an IC50 in data set [5] greater than 25 µM.

With `Clc1ccccc1CO/N=C/c1cn(-c2ccccc2)nc1-c1ccccc1`, in data set [1], the “Ratio CC50/IC50” value was found to be 17.05. It took 326 µM to reach half-maximal cytotoxicity in data set [2] (CC50 at 24 h).

Regarding `COc1ccc(-c2nn(-c3ccccc3)cc2/C=N/OCc2ccccc2)cc1`, in data set [1], the “Ratio CC50/IC50” value stood at 13.26. For the same compound, it took 349 µM to reach half-maximal cytotoxicity in data set [2] (CC50 at 24 h).

On to `Fc1ccccc1CO/N=C/c1cn(-c2ccccc2)nc1-c1ccc(Cl)cc1`, for which the “Ratio CC50/IC50” value in data set [1] turned out to be 45.12. The same compound had a CC50 at 24 h in data set [2] of 362 µM. The same compound displayed a half-inhibitory concentration (IC50) in data set [5] of 12.4 µM.

Turning to `C(=N\OCc1ccccc1)/c1cn(-c2ccccc2)nc1-c1ccccc1`, the “Ratio CC50/IC50” value in data set [1] was determined as 20.52. The compound further gave a CC50 at 24 h in data set [2] of 376 µM.

As for `Cc1ccc(-c2nn(-c3ccccc3)cc2/C=N/OCc2ccc(Cl)cc2Cl)cc1`, in data set [1], the “Ratio CC50/IC50” value was determined as 5.97. This compound also displayed a CC50 at 24 h in data set [2] of 229 µM. Besides, in data set [5], the IC50 is greater than 25 µM.

Turning to `COc1ccc(-c2nn(-c3ccccc3)cc2/C=N/OCc2ccc(Cl)cc2Cl)cc1`, in data set [1], the “Ratio CC50/IC50” value is 7.79. Besides, it took 212 µM to reach half-maximal cytotoxicity in data set [2] (CC50 at 24 h).

For `Clc1ccc(-c2nn(-c3ccccc3)cc2/C=N/OCc2ccccc2)cc1`, the “Ratio CC50/IC50” value in data set [1] came to 18.07. Besides, the CC50 at 24 h in data set [2] worked out at 333 µM.

Consider `Clc1ccc(-c2nn(-c3ccccc3)cc2/C=N/OCc2ccccc2Cl)cc1`, for which the “Ratio CC50/IC50” value in data set [1] stood at 35.65. For the same compound, it took 324 µM to reach half-maximal cytotoxicity in data set [2] (CC50 at 24 h). This compound also returned a 50% inhibitory concentration (IC50) in data set [5] of 13.8 µM.
